Source: ChEMBL document CHEMBL4145538, “Recent progress in the structural modification and pharmacological activities of ligustrazine derivatives” (Eur J Med Chem, 2018)
Converted amounts (≈) assume the structure as drawn. Each block holds one compound with its values, some of them ahead of it.

Tests used:
[1] = Half life in Sprague-Dawley rat at 20 mg/kg, iv; type: ADME, organism-based; conditions: in vivo
PC-12 [2] = assay: Neuroprotection against CoCl2-induced toxicity in rat PC12 cells preincubated for 36 hrs followed by CoCl2 addition measured after 12 hrs by MTT assay; type: functional, cell-based
Platelet = assay: Antiplatelet activity in rabbit platelet rich plasma assessed as inhibition of ADP-induced platelet aggregation by cytometry; type: functional, cell-based; conditions: Oryctolagus cuniculus
Bel-7402 [3] = assay: Antiproliferative activity against human Bel7402 cells; type: functional, cell-based
A549 = assay: Antiproliferative activity against human A549 cells; type: functional, cell-based
HCT-8 = assay: Antiproliferative activity against human HCT8 cells; type: functional, cell-based
BGC-823 = assay: Antiproliferative activity against human BGC823 cells; type: functional, cell-based
A2780 = assay: Antiproliferative activity against human A2780 cells; type: functional, cell-based
Thoracic aorta = assay: Vasodilatory activity in Sprague-Dawley rat thoracic aorta rings assessed as reduction in KCl-induced contraction; type: functional, tissue-based
ECV-304 [4] = assay: Protection against H2O2-induced damage in human ECV304 cells preincubated for 24 hrs followed by H2O2 addition and measured after 12 hrs by MTT assay; type: functional, cell-based
ECV-304 [5] = assay: Potency index, ratio of ligustrazine EC50 to compound EC50 for protection against H2O2-induced damage in human ECV304 cells; type: functional
PC-12 [6] = assay: Neuroprotection against CoCl2-induced toxicity in rat PC12 cells; type: functional, cell-based
HepG2 [7] = assay: Antiproliferative activity against human HepG2 cells; type: functional, cell-based
HT-29 [8] = assay: Antiproliferative activity against human HT-29 cells; type: functional, cell-based
HeLa [9] = assay: Antiproliferative activity against human HeLa cells; type: functional, cell-based
Mus musculus = assay: Anti-inflammatory activity in Kunming mouse assessed as inhibition of xylene-induced ear edema at 100 mg/kg, ig administered once daily for 7 days relative to control; type: functional; conditions: po, 168 h
Staphylococcus aureus = assay: Antibacterial activity against Staphylococcus aureus; type: functional
[10] = tested on: Staphylococcus epidermidis; assay: Antibacterial activity against Staphylococcus epidermidis; type: functional
HUVEC [11] = assay: Protection against H2O2-induced damage in HUVEC; type: functional, cell-based; conditions: Homo sapiens
HUVEC [12] = assay: Protection against H2O2-induced damage in HUVEC preincubated for 0.5 hrs followed by H2O2 addition and measured after 12 hrs; type: functional, cell-based; conditions: Homo sapiens
Bel-7402 [13] = assay: Antiproliferative activity against human Bel7402 cells after 72 hrs by MTT assay; type: functional, cell-based; conditions: Bel-7402, 72 h
HT-29 [14] = assay: Antiproliferative activity against human HT-29 cells after 72 hrs by MTT assay; type: functional, cell-based; conditions: HT-29, 72 h
HepG2 [15] = assay: Antiproliferative activity against human HepG2 cells after 72 hrs by MTT assay; type: functional, cell-based; conditions: HepG2, 72 h
MCF7 = assay: Antiproliferative activity against human MCF7 cells after 72 hrs by MTT assay; type: functional, cell-based; conditions: MCF7, 72 h
HeLa [16] = assay: Antiproliferative activity against human HeLa cells after 72 hrs by MTT assay; type: functional, cell-based
MDCK [17] = assay: Antiproliferative activity against MDCK cells; type: cell-based; conditions: Canis lupus familiaris
MDCK [18] = assay: Antiproliferative activity against MDCK cells at 10 uM after 72 hrs by MTT assay relative to control; type: cell-based, Canis lupus familiaris; conditions: dog
HepG2 [19] = assay: Antiproliferative activity against human HepG2 cells at 10 uM after 72 hrs by MTT assay relative to control; type: functional
HUVEC [20] = assay: Potency index, ratio of ligustrazine EC50 to compound EC50 for protection against H2O2-induced damage in HUVEC; type: functional, Homo sapiens

half-life [1]: 3.03 h
SMILES: CCOC(=O)/C=C/c1cc(OC)c(OC(=O)c2nc(C)c(C)nc2C)c(OC)c1

SMILES: Cc1nc(C)c(COCCc2ccc(OCc3nc(C)c(C)nc3C)cc2)nc1C
EC50 (PC-12 [2]): 2.03 µM

IC50 (Platelet): 2790 µM
SMILES: COc1ccc(C(=O)NCc2nc(C)c(C)nc2C)cc1C(=O)NCc1nc(C)c(C)nc1C

IC50 (Bel-7402 [3]): 6.5 µg/mL (≈ 17.6 µM)
IC50 (A549): 6.52 µg/mL (≈ 17.7 µM)
IC50 (HCT-8): 6.28 µg/mL (≈ 17 µM)
IC50 (BGC-823): 6.81 µg/mL
IC50 (A2780): 6.52 µg/mL (≈ 17.7 µM)
SMILES: COc1cc(/C=C/C(=O)CC(=O)/C=C/c2ccc(O)c(OC)c2)ccc1O [CURCUMIN]

IC50 (Platelet): 49900 µM
SMILES: COc1ccc(C(=O)NCc2cccnc2)cc1C(=O)NCc1cccnc1 [PICOTAMIDE]

EC50 (Thoracic aorta): 379 µM
SMILES: Cc1nc(C)c(COc2ccc(COC(=O)c3cccnc3)cc2)nc1C

SMILES: Cc1nc(C)c(C(=O)NC(=N)NCc2cccc(Cl)c2)nc1C
EC50 (ECV-304 [4]): 59 µM
Ratio EC50 (ECV-304 [5]): 10

SMILES: COc1cc(C(=O)OCc2nc(C)c(C)nc2C)ccc1OCc1nc(C)c(C)nc1C
EC50 (PC-12 [6]): 4.25 µM

IC50 (HepG2 [7]): 21.4 µM
IC50 (HT-29 [8]): > 25 µM
IC50 (HeLa [9]): 8.68 µM
SMILES: Cc1nc(C)c(COC(=O)[C@]23CCC(C)(C)C[C@H]2C2=CC[C@@H]4[C@@]5(C)CC[C@H](O)C(C)(C)[C@@H]5CC[C@@]4(C)[C@]2(C)CC3)nc1C

SMILES: Cc1nc(C)c(CCOc2cccc3c2C(=O)c2c(OCCc4nc(C)c(C)nc4C)cc(C(=O)O)cc2C3=O)nc1C
inhibition in vivo at 100 mg/kg (Mus musculus): 17.5%

SMILES: COc1ccc(/C=C/C(=O)NCc2nc(C)c(C)nc2C)c(OC)c1OC
EC50 (PC-12 [6]): 25 µM

EC50 (Thoracic aorta): 751 µM
SMILES: CCOC(=O)c1ccc(OCc2ccc(OCc3nc(C)c(C)nc3C)cc2)cc1

IC50 (Bel-7402 [3]): 6.39 µg/mL (≈ 10 µM)
IC50 (A549): 5.89 µg/mL (≈ 9.25 µM)
IC50 (HCT-8): 7.11 µg/mL (≈ 11.2 µM)
IC50 (BGC-823): 5.47 µg/mL
IC50 (A2780): 5.54 µg/mL (≈ 8.7 µM)
SMILES: COc1cc(/C=C/C(=O)CC(=O)/C=C/c2ccc(OCc3nc(C)c(C)nc3C)c(OC)c2)ccc1OCc1nc(C)c(C)nc1C

SMILES: Cc1nc(C)c(COCc2ccc(OCc3nc(C)c(C)nc3C)cc2)nc1C
EC50 (PC-12 [2]): 1.66 µM

MIC (Staphylococcus aureus): 8 µg/mL (≈ 18.3 µM)
MIC [10]: 4 µg/mL (≈ 9.16 µM)
SMILES: Cc1nc(C)c(COc2ccc(N3CC(CNC(=O)CCl)OC3=O)cc2F)nc1C (configuration not stated)

SMILES: Cc1nc(C)c(CNC(=O)C(O)c2ccccc2)nc1C (configuration not stated)
EC50 (HUVEC [11]): 55 µM

SMILES: Cc1nc(C)c(COC(=O)CC[C@@H](C)[C@H]2CC[C@H]3[C@@H]4CC[C@@H]5C[C@H](O)CC[C@]5(C)[C@H]4C[C@H](O)[C@]23C)nc1C
IC50 (Bel-7402 [3]): 8.01 µg/mL (≈ 15.2 µM)
IC50 (A549): 6.69 µg/mL (≈ 12.7 µM)
IC50 (HCT-8): 7.43 µg/mL (≈ 14.1 µM)
IC50 (BGC-823): 6.66 µg/mL
IC50 (A2780): 6.62 µg/mL (≈ 12.6 µM)

EC50 (Thoracic aorta): 2330 µM
IC50 (Bel-7402 [13]): > 20 µM
IC50 (HT-29 [14]): > 20 µM
IC50 (HepG2 [15]): > 20 µM
IC50 (MCF7): > 20 µM
IC50 (HeLa [16]): > 20 µM
SMILES: Cc1nc(C)c(C)nc1C [LIGUSTRAZINE]
EC50 (HUVEC [12]): 788 µM
EC50 (ECV-304 [4]): 549 µM
EC50 (HUVEC [11]): 600 µM
EC50 (PC-12 [6]): 60 to 64.5 µM
EC50 (PC-12 [2]): 64.5 µM

SMILES: COc1ccc(/C=C/c2nc(C)c(C)nc2C)c(OC)c1OC
EC50 (HUVEC [12]): 5.76 µM

SMILES: COc1cc(COCc2nc(C)c(C)nc2C)ccc1OCc1nc(C)c(C)nc1C
EC50 (PC-12 [2]): 1.07 µM

IC50 (BGC-823): 3.06 µM
IC50 (HepG2 [7]): 2 µM
IC50 (HT-29 [8]): 2.5 µM
IC50 (HeLa [9]): 3.26 µM
SMILES: Cc1nc(C)c(COC(=O)[C@]23CCC(C)(C)C[C@H]2C2=CC[C@@H]4[C@@]5(C)CC[C@H](OC(=O)CN)C(C)(C)[C@@H]5CC[C@@]4(C)[C@]2(C)CC3)nc1C
IC50 (MDCK [17]): 4.88 µM

IC50 (Bel-7402 [13]): 4.19 µM
IC50 (HT-29 [14]): 5.23 µM
IC50 (HepG2 [15]): 4.48 µM
IC50 (MCF7): 4.23 µM
IC50 (HeLa [16]): 4.34 µM
SMILES: Cc1nc(C)c(COC(=O)[C@]23CC[C@@H](C(C)C)[C@H]2[C@@H]2CC[C@@H]4[C@@]5(C)CC[C@H](O)C(C)(C)[C@@H]5CC[C@@]4(C)[C@]2(C)CC3)nc1C
Activity (MDCK [18]): 26.5%
Activity (HepG2 [19]): 99.87%

SMILES: Cc1nc(C)c(COC(=O)c2cc(O)c3c(c2)C(=O)c2cccc(O)c2C3=O)nc1C
inhibition in vivo at 100 mg/kg (Mus musculus): 76.4%

SMILES: O=C(O)c1cc(O)c2c(c1)C(=O)c1cccc(O)c1C2=O [RHEIN]
inhibition in vivo at 100 mg/kg (Mus musculus): 65.5%

SMILES: CNC(=N)NC(=O)c1nc(C)c(C)nc1C
EC50 (ECV-304 [4]): 97 µM

IC50 (BGC-823): 2.48 µM
IC50 (HepG2 [7]): 2.27 µM
IC50 (HT-29 [8]): 2.35 µM
IC50 (HeLa [9]): 2.38 µM
SMILES: Cc1nc(C)c(COC(=O)[C@]23CCC(C)(C)C[C@H]2C2=CC[C@@H]4[C@@]5(C)CC[C@H](OC(=O)[C@@H](N)CCCCN)C(C)(C)[C@@H]5CC[C@@]4(C)[C@]2(C)CC3)nc1C
IC50 (MDCK [17]): 2.31 µM

EC50 (Thoracic aorta): 751 µM
SMILES: Cc1nc(C)c(COc2ccc(COc3ccc(C=O)cc3)cc2)nc1C

SMILES: Cc1nc(C)c(COc2ccc(N3CC(CNC(=O)CCl)OC3=O)cc2)nc1C (configuration not stated)
MIC (Staphylococcus aureus): 8 µg/mL (≈ 19.1 µM)
MIC [10]: 8 µg/mL (≈ 19.1 µM)

SMILES: CC(=O)OC(C(=O)NCc1nc(C)c(C)nc1C)c1ccccc1 (configuration not stated)
EC50 (HUVEC [11]): 70 µM

SMILES: Cc1nc(C)c(C(=O)NC(=N)NCc2ccc(Cl)c(Cl)c2)nc1C
EC50 (ECV-304 [4]): 94 µM

SMILES: COc1cccc(/C=C/c2nc(C)c(C)nc2C)c1O
EC50 (HUVEC [12]): 28.9 µM

SMILES: COc1cc(C(=O)c2cccc(N(C)C)c2)ccc1OCc1nc(C)c(C)nc1C
EC50 (PC-12 [6]): 17.4 µM

SMILES: Cc1nc(C)c(CNC(=O)c2ccncc2)nc1C
EC50 (HUVEC [11]): 37 µM

EC50 (Thoracic aorta): 93 µM
SMILES: Cc1nc(C)c(C(=O)Oc2ccc(CO[N+](=O)[O-])cc2)nc1C

SMILES: Cc1nc(C)c(/C=C/c2ccccc2Cl)nc1C
Ratio EC50 (HUVEC [20]): 30000
EC50 (HUVEC [12]): 0.0249 µM
